In patent publication US6369222B1, “mGluR antagonists and a method for their synthesis” (Hoffmann-La Roche Inc., priority 2000, dated 2002):

Experiments:
[1] = biological target: T1, rat mGluR1a receptor (Rattus norvegicus, UniProt P23385); experiment: Binding assay for the characterization of mGluR 1 antagonistic properties (displacement of tritiated 1-ethyl-2-methyl-6-oxo-4-(1,1,2-tritritio-1,2,4,5-tetrahydro-benzo[d]azepin-3-yl)-1,6-dihydro-pyrimidine-5-carbonitrile); settings: membranes of HEK 293 cells transiently transfected with rat mGluR1a, 10 μg protein per assay; radioligand 3 nM; 1 hour at room temperature; read-out: B-IC50
T1 construct: expressed in transfected cells; host or cells: HEK 293 cells, transient transfection; membranes used
Protocol: Binding Assay for the Characterization of mGluR 1 Antagonistic Properties
Binding assay with tritiated 1-ethyl-2-methyl-6-oxo-4-(1,1,2-tritritio-1,2,4,5-tetrahydro-benzo[d]azepin-3-yl)-1,6-dihydro-pyrimidine-5-carbonitrile: HEK 293 cells were transiently transfected with the rat mGluR1a receptor. The cells were collected and washed 3 times with PBS. The cell pellets were frozen at −80° C. Membranes were prepared from HEK 293 cells transfected with the rat mGluR1a receptor and used in the binding experiments at 10 μg proteins per assay after resuspension in a HEPES NaOH 20 mM, pH=7.4 binding buffer. 1-Ethyl-2-methyl-6-oxo-4-(1,1,2-tritritio-1,2,4,5-tetrahydro-benzo[d]azepin-3-yl)-1,6-dihydro-pyrimidine-5-carbonitrile (S.A. 33.4 Ci/mmol) was used at 3 nM final concentration. The incubation with variable concentrations of potential inhibitors was performed for 1 hour at room temperature, the incubate was then filtered onto GF/B glass fiber filter preincubated 1 hour in PEI 0,1% and washed 3 times with 1 ml of cold binding buffer. The radioactivity retained on the unifilter 96 was counted using a Topcount β counter. After correction for non specific binding the data were normalized and the IC50 value calculated using a 4 parameters logistic equation which was fitted to the inhibition curve.

T1 sequence (P23385 19-1199): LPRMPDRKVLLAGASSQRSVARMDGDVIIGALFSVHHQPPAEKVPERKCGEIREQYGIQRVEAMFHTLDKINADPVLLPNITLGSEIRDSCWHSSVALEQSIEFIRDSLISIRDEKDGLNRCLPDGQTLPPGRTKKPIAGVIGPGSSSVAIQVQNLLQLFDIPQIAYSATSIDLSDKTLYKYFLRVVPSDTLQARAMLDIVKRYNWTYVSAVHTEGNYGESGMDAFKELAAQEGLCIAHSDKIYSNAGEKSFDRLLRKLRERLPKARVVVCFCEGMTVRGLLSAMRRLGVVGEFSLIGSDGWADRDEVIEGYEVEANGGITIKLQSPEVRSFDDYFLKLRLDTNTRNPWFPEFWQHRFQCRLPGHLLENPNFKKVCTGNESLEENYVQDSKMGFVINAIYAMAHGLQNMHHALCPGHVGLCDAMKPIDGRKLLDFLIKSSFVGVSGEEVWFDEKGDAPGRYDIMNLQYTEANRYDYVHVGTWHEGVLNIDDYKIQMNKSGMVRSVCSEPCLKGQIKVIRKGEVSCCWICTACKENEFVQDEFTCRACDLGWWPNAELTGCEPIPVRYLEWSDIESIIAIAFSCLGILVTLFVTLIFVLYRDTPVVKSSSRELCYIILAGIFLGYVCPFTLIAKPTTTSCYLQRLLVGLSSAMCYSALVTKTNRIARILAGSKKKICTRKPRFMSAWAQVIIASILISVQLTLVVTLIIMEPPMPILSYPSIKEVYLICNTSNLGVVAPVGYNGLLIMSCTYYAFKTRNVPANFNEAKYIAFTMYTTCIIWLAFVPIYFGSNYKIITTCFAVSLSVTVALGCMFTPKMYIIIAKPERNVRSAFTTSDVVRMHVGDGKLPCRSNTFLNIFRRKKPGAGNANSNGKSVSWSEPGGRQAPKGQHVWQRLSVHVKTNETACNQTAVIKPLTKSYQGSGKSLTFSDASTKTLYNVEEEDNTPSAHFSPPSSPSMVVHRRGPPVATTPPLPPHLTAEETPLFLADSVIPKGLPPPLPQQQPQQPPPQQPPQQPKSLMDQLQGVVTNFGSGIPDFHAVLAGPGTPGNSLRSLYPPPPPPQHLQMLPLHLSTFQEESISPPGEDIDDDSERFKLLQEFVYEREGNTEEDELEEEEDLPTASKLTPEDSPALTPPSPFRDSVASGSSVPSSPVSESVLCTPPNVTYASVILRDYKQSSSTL

| melting point | IC50 [1] | Structure (SMILES) |
| --- | --- | --- |
| > 200 °C | 49 µM | Cc1nc(N2CCc3nc(N)sc3CC2)c([N+](=O)[O-])c(=O)[nH]1 [Example 3, 6-(2-Amino-4,5,7,8-tetrahydro-thiazolo[4,5-d]azepin-6-yl)-2-methyl-5-nitro-3H-pyrimidin-4-one] |
| > 200 °C | 30 µM | Cc1nc(N2CCc3nc(C)sc3CC2)c([N+](=O)[O-])c(=O)[nH]1 [Example 1, 2-methyl-6-(2-methyl-4,5,7,8-tetrahydro-thiazolo[4,5-d]azepin-6-yl)-5-nitro-3H-pyrimidin-4-one] |
| – | 43 µM | Cc1nc(N2CCc3ncsc3CC2)c([N+](=O)[O-])c(=O)[nH]1 [Example 6, 2-Methyl-5-nitro-6-(4,5,7,8-tetrahydro-thiazolo[4,5-d]azepin-6-yl)-3H-pyrimidin-4-one] |

Continued, molecule first:

| Structure (SMILES) | melting point | IC50 [1] |
| --- | --- | --- |
| CCn1c(C)nc(N2CCc3nc(N)sc3CC2)c([N+](=O)[O-])c1=O [Example 4, 6-(2-Amino-4,5,7,8-tetrahydro-thiazolo[4,5-d]azepin-6-yl)-3-ethyl-2-methyl-5-nitro-3H-pyrimidin-4-one] | > 200 °C | 6 µM |
| Cc1nc(O)c2c(n1)CCN(c1nc(C)nc(O)c1[N+](=O)[O-])CC2 [Example 5, 7-(6-Hydroxy-2-methyl-5-nitro-pyrimidin-4-yl)-2-methyl-6,7,8,9-tetrahydro-5H-pyrimido[4,5-d]azepin-4-ol] | > 200 °C | – |
| CCn1c(C)nc(N2CCc3nc(C)sc3CC2)c([N+](=O)[O-])c1=O [Example 2, 3-Ethyl-2-methyl-6-(2-methyl-4,5,7,8-tetrahydro-thiazolo[4,5-d]azepin-6-yl)-5-nitro-3H-pyrimidin-4-one] | 164.2 to 166.8 °C | – |
| Cc1nc(O)c([N+](=O)[O-])c(N2CCc3cncnc3CC2)n1 [Example 7, 2-Methyl-5-nitro-6-(5,6,8,9-tetrahydro-pyrimido[4,5-d]azepin-7-yl)-pyrimidin-4-ol] | > 200 °C | – |
| Cc1nc(N2CCc3ccsc3CC2)c([N+](=O)[O-])c(=O)[nH]1 [Example 9, 2-Methyl-5-nitro-6-(4,5,7,8-tetrahydro-thieno[2,3-d]azepin-6-yl)-3H-pyrimidin-4-one] | > 200 °C | 1.9 µM |
